This is an account of results in ChEMBL document CHEMBL1135019, “New generation dopaminergic agents. Part 8: heterocyclic bioisosteres that exploit the 7-OH-2-(aminomethyl)chroman D(2) template” (Bioorg Med Chem Lett, 2002).

pKi: −log10 of the molar value.

One test concerns the target D(3) dopamine receptor (Homo sapiens, UniProt P35462). The experiment in a line: biochemical.
For the next test, the target named is T1, D(4) dopamine receptor (Homo sapiens, UniProt P21917).
T1 sequence (P21917 whole entry): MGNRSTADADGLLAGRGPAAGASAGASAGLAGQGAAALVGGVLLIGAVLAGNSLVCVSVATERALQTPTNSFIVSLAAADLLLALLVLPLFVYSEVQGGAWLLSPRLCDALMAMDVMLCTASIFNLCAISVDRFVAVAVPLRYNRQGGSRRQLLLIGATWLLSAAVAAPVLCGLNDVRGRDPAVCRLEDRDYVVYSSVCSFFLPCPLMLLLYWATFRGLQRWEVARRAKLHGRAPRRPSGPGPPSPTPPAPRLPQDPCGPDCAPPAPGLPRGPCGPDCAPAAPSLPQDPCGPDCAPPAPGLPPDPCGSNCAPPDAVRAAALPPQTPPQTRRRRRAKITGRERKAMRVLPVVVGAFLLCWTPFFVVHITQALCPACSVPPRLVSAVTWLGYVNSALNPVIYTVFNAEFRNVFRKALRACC
Description: biochemical.

The target in test [1] is D(2) dopamine receptor (Homo sapiens, UniProt P14416). The experiment in a line: biochemical.
Sequence of D(2) dopamine receptor (Homo sapiens, UniProt P14416) (P14416 whole entry): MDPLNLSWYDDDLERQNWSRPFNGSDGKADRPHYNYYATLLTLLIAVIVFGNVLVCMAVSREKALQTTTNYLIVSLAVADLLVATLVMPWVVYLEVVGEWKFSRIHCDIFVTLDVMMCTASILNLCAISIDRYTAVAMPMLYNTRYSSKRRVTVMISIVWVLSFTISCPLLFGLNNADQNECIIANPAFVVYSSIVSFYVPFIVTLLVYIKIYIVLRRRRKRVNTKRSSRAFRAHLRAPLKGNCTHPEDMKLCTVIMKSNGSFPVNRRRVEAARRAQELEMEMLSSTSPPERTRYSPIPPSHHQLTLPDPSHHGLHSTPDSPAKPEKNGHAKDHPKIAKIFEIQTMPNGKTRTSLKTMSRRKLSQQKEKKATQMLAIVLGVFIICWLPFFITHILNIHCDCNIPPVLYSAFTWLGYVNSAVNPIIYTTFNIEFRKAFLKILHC
Description: Affinity for the Dopamine receptor D2S was determined using membranes from CHO cells labeled with [3H]spiperone
The target of test [2] is D(2) dopamine receptor (Rattus norvegicus) (UniProt P61169). Description: Ratio D2 partial agonist, Ki(D2 Low)/Ki(D2 High), to compare a compounds estimated intrinsic activity.
Sequence of D(2) dopamine receptor (Rattus norvegicus) (P61169 whole entry, looked up): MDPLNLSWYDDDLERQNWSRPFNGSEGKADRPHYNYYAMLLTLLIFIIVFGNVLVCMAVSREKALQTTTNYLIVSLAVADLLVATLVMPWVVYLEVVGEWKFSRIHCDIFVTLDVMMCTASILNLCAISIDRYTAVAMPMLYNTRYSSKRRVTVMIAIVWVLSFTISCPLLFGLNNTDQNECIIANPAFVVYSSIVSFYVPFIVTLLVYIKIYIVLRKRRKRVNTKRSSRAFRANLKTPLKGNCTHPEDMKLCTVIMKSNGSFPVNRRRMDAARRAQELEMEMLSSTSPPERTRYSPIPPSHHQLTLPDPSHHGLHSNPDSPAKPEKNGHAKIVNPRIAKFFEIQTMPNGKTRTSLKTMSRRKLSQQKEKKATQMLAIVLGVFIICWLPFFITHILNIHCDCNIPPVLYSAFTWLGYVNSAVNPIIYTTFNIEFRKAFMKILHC
Test [3] deals with T2, D(2) dopamine receptor (Rattus norvegicus, UniProt P61169).
T2 sequence (P61169 whole entry): as the sequence (P61169 whole entry, looked up) above
Description: Affinity of compound for Dopamine receptor D2 in rat striatal membrane determined for antagonist state (low affinity state, D2 Low) with [3H]spiperone (using ketanserin to exclude 5-HT2 receptor binding) in the presence of GTP and sodium
For test [4], the target named is T2, D(2) dopamine receptor. This is another data set of the same source.
Description: Affinity of compound for D2 receptor in rat striatal membrane determined for agonist state (high affinity state, D2 High) [3H]quinpirole as radioligand (in the absence of GTP and sodium)

Usually pKi stands for −log10 of the Ki, conventionally taken in molar units. Low values mean a high Ki, high ones a low Ki.

Sequence of D(3) dopamine receptor (P35462 whole entry): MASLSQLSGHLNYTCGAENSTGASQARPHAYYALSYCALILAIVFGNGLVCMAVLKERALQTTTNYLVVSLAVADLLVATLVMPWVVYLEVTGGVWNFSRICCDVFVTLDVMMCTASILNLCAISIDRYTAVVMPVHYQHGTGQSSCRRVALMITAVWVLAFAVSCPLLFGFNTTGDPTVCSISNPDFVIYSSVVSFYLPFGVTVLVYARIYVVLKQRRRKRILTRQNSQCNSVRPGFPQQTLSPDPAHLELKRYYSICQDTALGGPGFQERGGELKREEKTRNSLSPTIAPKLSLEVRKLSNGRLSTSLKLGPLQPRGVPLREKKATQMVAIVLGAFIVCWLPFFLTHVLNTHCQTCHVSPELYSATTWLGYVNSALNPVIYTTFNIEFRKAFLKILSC
Description for D(3) dopamine receptor: Affinity for the Human Dopamine receptor D3 was determined using membranes from CHO cells labeled with [3H]spiperone
Description for D(4) dopamine receptor: Affinity for the Human Dopamine receptor D4 was determined using membranes from CHO cells labeled with [3H]spiperone

Turning to `O=C1Cc2c(ccc3c2O[C@@H](CNCc2ccccc2)CC3)N1`, the figures for the pKi on D(3) dopamine receptor, at D(4) dopamine receptor and at D(2) dopamine receptor [1] were 8.62, 6.44 and 8.03, respectively. Moreover, the Ratio in test [2] was 42.
Turning to `O=c1[nH]c2ccc3c(c2[nH]1)O[C@H](CNCc1ccccc1)CC3`, the pKi on D(3) dopamine receptor is 7.09; on D(4) dopamine receptor, 6.50; at D(2) dopamine receptor [1], 7.17; at D(2) dopamine receptor [3], 7.17; at D(2) dopamine receptor [4], 8.26.
`FC(F)(F)c1nc2c3c(ccc2[nH]1)CCC(CNCc1ccccc1)O3` (racemic): the Ratio in test [2] was 11.
Still for that read-out and setting: with `Oc1nc2c3c(ccc2[nH]1)CCC(CNCc1ccccc1)O3` (racemic) the figure was 50.
As for `c1ccc(CNC[C@H]2CCc3ccc4[nH]ccc4c3O2)cc1`, the pKi was 7.47 on D(3) dopamine receptor, 5.66 at D(4) dopamine receptor and 6.97 at D(2) dopamine receptor [1]. The Ratio in test [2] was 24.
For the compound `O=c1[nH]c2ccc3c(c2[nH]1)O[C@@H](CNCc1ccccc1)CC3`, the pKi at D(3) dopamine receptor is 9.40; on D(4) dopamine receptor, 8.15; at D(2) dopamine receptor [1], 8.52; at D(2) dopamine receptor [3] it was 8.32; at D(2) dopamine receptor [4], 10.15.
On the same counts, the results for `FC(F)(F)c1nc2ccc3c(c2[nH]1)OC(CNCc1ccccc1)CC3` (racemic) are 6.58, 7.43, 6.88, 7.19 and 8.24.
`Oc1nc2c3c(ccc2[nH]1)CC[C@@H](CNCc1ccccc1)O3`: the Ratio in test [2] was 12.
On the same count and under the same terms, with `Oc1nc2c3c(ccc2[nH]1)CC[C@H](CNCc1ccccc1)O3` the figure was 69.
Consider `O=c1[nH]c2ccc3c(c2[nH]1)OC(CNCc1ccccc1)CC3` (racemic), for which the pKi at D(3) dopamine receptor was 9.00; on D(4) dopamine receptor, 8.00; on D(2) dopamine receptor [1], 8.30; at D(2) dopamine receptor [3], 8.15; at D(2) dopamine receptor [4], 9.85.
